The values below are quoted from earlier work in patent US20040247689A1, “Process for preparing a pharmaceutical active ingredient with high specific surface area” (priority 2003, published 2004).

With `OCc1cc(C(O)CNCCCCCCOCCCCc2ccccc2)ccc1O` (centres unmarked) [salmeterol xinafoate], the solubility in chloroform result (chloroform) is recorded as “slightly soluble”. Further, the solubility in ethanol entry (ethanol) is “slightly soluble”. Besides, the solubility in isopropanol result (isopropanol) was “slightly soluble”. Further, the solubility in methanol result (methanol) is recorded as “freely soluble”. Besides, the solubility in water entry (water) was “sparingly soluble”.
